Measured values published in patent EP0326331B1, “Substituted quinolines and cinnolines” (Dow AgroSciences LLC, priority 1988, dated 1989).

Key:
Assay type in all cases: in vivo
[1] = tested on: Erysiphe graminis tritici (powdery mildew); assay: Test 1 greenhouse foliar spray screen, powdery mildew on wheat; settings: Blumeria graminis, foliar, Test 1, foliar spray on wheat; disease control rating at 400 ppm / 100 ppm; read-out: POWD MDEW
[2] = tested on: Pyricularia oryzae (rice blast); assay: whole plant or invertebrate; settings: Pyricularia oryzae, foliar, read-out: RICE BLAST, Test 1, foliar spray on rice; disease control rating at 400 ppm / 100 ppm
[3] = tested on: Puccinia recondita tritici (leaf rust); assay: Test 1 greenhouse foliar spray screen, leaf rust on wheat; settings: Puccinia recondita, foliar, Test 1, foliar spray on wheat; disease control rating at 400 ppm / 100 ppm
[4] = tested on: Botrytis cinerea (gray mold); assay: Test 1 greenhouse foliar spray screen, gray mold on grape berries; settings: Botrytis cinerea, foliar; Test 1, spray on grape berries; disease control rating at 400 ppm / 100 ppm
[5] = tested on: Pseudoperonospora cubensis (downy mildew); assay: Test 1 greenhouse foliar spray screen, downy mildew on squash; settings: Pseudoperonospora cubensis, foliar, Test 1, foliar spray on squash; disease control rating at 400 ppm / 100 ppm; read-out: DOWN MDEW
[6] = tested on: southern armyworm (Spodopetra eridania Cramer); assay: Mite/insect screen, SAW; settings: Spodoptera eridania, foliar, percent mortality, foliar spray on squash, read-out: SAW RESULTS %; for mortality at 200 ppm: rate 200 ppm; for mortality at 400 ppm: rate 400 ppm
Method in brief: (§1)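 Compounds dissolved in 50:50 acetone/alcohol containing sulfonate/nonionic emulsifier blends, then diluted with water to the indicated concentrations. Leaves sprayed on both surfaces to runoff at 10 psi and dried one hour. Percent mortality scored after standard exposure periods.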

[7] = tested on: Twospotted spider mites (Tetranychus urticae Koch); assay: Mite/insect screen, SM; settings: Tetranychus urticae, foliar, percent mortality, foliar spray on squash, read-out: SM RESULTS %; for mortality at 200 ppm: rate 200 ppm; for mortality at 400 ppm: rate 400 ppm
Method in brief: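 Activity is expressed as percent mortality at the indicated spray concentrations. Plants are sprayed to runoff on upper and lower leaf surfaces with aqueous dilutions of an acetone/alcohol emulsifiable formulation, then dried for one hour.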

[8] = tested on: melon aphids (Aphis gossypii Glover); assay: Mite/insect screen, MA; settings: Aphis gossypii, foliar, percent mortality, foliar spray on squash, read-out: MA RESULTS %; for mortality at 200 ppm: rate 200 ppm; for mortality at 400 ppm: rate 400 ppm
Method in brief: as §1

[9] = tested on: corn rootworm; assay: Mite/insect screen, CRW; settings: percent mortality, read-out: CRW RESULTS %; for mortality at 12 ppm: CRW rate 12.00 ppm; for mortality at 24 ppm: CRW rate 24.00 ppm
Method in brief: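 Compounds were dissolved in 50:50 acetone/alcohol containing sulfonate/nonionic emulsifier blends (23 g/L plus 13 g/L), then diluted with water to the test concentrations. Percent mortality was scored after standard exposure periods.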

Work on CCCCOc1ccc(CCOc2ccnc3c(F)cccc23)cc1 [Example 278, 4-[2-(4-butoxyphenyl)ethoxy]-8-fluoroquinoline] yielded a pest or weed control at 400 ppm [1] of 90 to 100%, a pest or weed control at 400 ppm [2] of 90 to 100% and a pest or weed control at 400 ppm [3] of 90 to 100%. The pest or weed control at 400 ppm [4] was 0 to 19%, the pest or weed control at 400 ppm [5] was 90 to 100% and the mortality at 200 ppm [6] was 0%. The mortality at 400 ppm [6] was 100%, the mortality at 200 ppm [7] was 60% and the mortality at 400 ppm [7] was 0%. The mortality at 200 ppm [8] was 90%, the mortality at 400 ppm [8] was 0% and the mortality at 12 ppm [9] was 0%. For the same molecule, the mortality at 24 ppm [9] was 0%.

For CCOc1ccc2nc(C)cc(OCCCOCc3ccccc3)c2c1 [Example 279, 6-ethoxy-2-methyl-4-[3-(phenylmethoxy)propoxy]quinoline], the pest or weed control at 400 ppm [1] was 0 to 19%, the pest or weed control at 400 ppm [2] was 90 to 100% and the pest or weed control at 400 ppm [3] was 90 to 100%. It also gave a pest or weed control at 400 ppm [4] of 0 to 19%, a pest or weed control at 400 ppm [5] of 90 to 100% and a mortality at 200 ppm [6] of 0%. It also gave a mortality at 400 ppm [6] of 0%, a mortality at 200 ppm [7] of 0% and a mortality at 400 ppm [7] of 0%. For the same molecule, the mortality at 200 ppm [8] was 0%, the mortality at 400 ppm [8] was 80% and the mortality at 12 ppm [9] was 0%. The mortality at 24 ppm [9] was 0%.

Clc1cccc2c(NCCc3cccc(Oc4ccccc4)c3)ccnc12 [Example 280, 8-chloro-N-[2-(3-phenoxyphenyl)ethyl]-4-quinolinamine] gave a pest or weed control at 400 ppm [1] of 90 to 100%, a pest or weed control at 400 ppm [2] of 90 to 100% and a pest or weed control at 400 ppm [3] of 90 to 100%. It also gave a pest or weed control at 400 ppm [4] of 0 to 19%, a pest or weed control at 400 ppm [5] of 90 to 100% and a mortality at 200 ppm [6] of 60%. For the same molecule, the mortality at 400 ppm [6] was 0%, the mortality at 200 ppm [7] was 0% and the mortality at 400 ppm [7] was 0%. For the same molecule, the mortality at 200 ppm [8] was 0%, the mortality at 400 ppm [8] was 0% and the mortality at 12 ppm [9] was 0%. The mortality at 24 ppm [9] was 0%.

With Clc1cccc2c(NCCCCc3ccccc3)ccnc12 [Example 281, 8-chloro-N-(4-phenylbutyl)-4-quinolinamine] the pest or weed control at 400 ppm [1] was 20 to 89%, the pest or weed control at 400 ppm [2] was 90 to 100% and the pest or weed control at 400 ppm [3] was 20 to 89%. The pest or weed control at 400 ppm [4] was 0 to 19%, the pest or weed control at 400 ppm [5] was 90 to 100% and the mortality at 200 ppm [6] was 0%. The mortality at 400 ppm [6] was 0%, the mortality at 200 ppm [7] was 0% and the mortality at 400 ppm [7] was 0%. The mortality at 200 ppm [8] was 0%, the mortality at 400 ppm [8] was 0% and the mortality at 12 ppm [9] was 0%. For the same molecule, the mortality at 24 ppm [9] was 0%.

For Fc1cccc2c(OCCCc3ccc(Oc4ccccc4)cc3)ccnc12 [Example 282, 8-fluoro-4-[3-(4-phenoxyphenyl)propoxy]quinoline], the pest or weed control at 400 ppm [1] was 0 to 19%, the pest or weed control at 400 ppm [2] was 20 to 89% and the pest or weed control at 400 ppm [3] was 0 to 19%. For the same molecule, the pest or weed control at 400 ppm [4] was 0 to 19%, the pest or weed control at 400 ppm [5] was 0 to 19% and the mortality at 200 ppm [6] was 0%. It also gave a mortality at 400 ppm [6] of 0%, a mortality at 200 ppm [7] of 0% and a mortality at 400 ppm [7] of 0%. It also gave a mortality at 200 ppm [8] of 0%, a mortality at 400 ppm [8] of 0% and a mortality at 12 ppm [9] of 0%. The mortality at 24 ppm [9] was 0%.

CC(CNc1ccnc2cc(Cl)ccc12)c1ccc(Cl)cc1 (stereo not shown) [Example 283, 7-chloro-N-[2-(4-chlorophenyl)propyl]-4-quinolinamine] was tested, and the pest or weed control at 400 ppm [1] was 20 to 89%, the pest or weed control at 400 ppm [2] was 20 to 89% and the pest or weed control at 400 ppm [3] was 90 to 100%. It also gave a pest or weed control at 400 ppm [4] of 0 to 19%, a pest or weed control at 400 ppm [5] of 90 to 100% and a mortality at 200 ppm [6] of 0%. The mortality at 400 ppm [6] was 0%, the mortality at 200 ppm [7] was 0% and the mortality at 400 ppm [7] was 80%. The mortality at 200 ppm [8] was 80%, the mortality at 400 ppm [8] was 0% and the mortality at 12 ppm [9] was 0%. It also gave a mortality at 24 ppm [9] of 0%.

Fc1cccc2c(OCCCC(Br)CBr)ccnc12 (stereo not shown) [Example 284, 4-[(4,5-dibromopentyl)oxy]-8-fluoroquinoline] was tested, and the pest or weed control at 400 ppm [1] was 0 to 19%, the pest or weed control at 400 ppm [2] was 90 to 100% and the pest or weed control at 400 ppm [3] was 90 to 100%. It also gave a pest or weed control at 400 ppm [4] of 0 to 19%, a pest or weed control at 400 ppm [5] of 20 to 89% and a mortality at 200 ppm [6] of 0%. It also gave a mortality at 400 ppm [6] of 0%, a mortality at 200 ppm [7] of 0% and a mortality at 400 ppm [7] of 0%. It also gave a mortality at 200 ppm [8] of 0%, a mortality at 400 ppm [8] of 0% and a mortality at 12 ppm [9] of 0%. It also gave a mortality at 24 ppm [9] of 0%.
